{"source": "paper PMC4629797", "about": "(Organic & biomolecular chemistry, 2015)", "key": {"[1]": {"tested_on": "MCF-7 cell line (breast cancer)", "experiment": "Cytotoxicity, standard MTT colorimetric assay, MCF-7", "format": "cell-based", "settings": "read-out: IC50 MCF-7, MCF-7 breast cancer cells"}, "[2]": {"tested_on": "MCF10A cell line (normal breast epithelial cells)", "experiment": "Cytotoxicity, standard MTT colorimetric assay, MCF10A", "format": "cell-based", "settings": "read-out: IC50 MCF10A"}, "[3]": {"tested_on": "20S proteasome", "settings": "potency comparable to belactosins A and C; cited from earlier work"}}, "data": [{"smiles": "CC[C@H](C)[C@H](NC(=O)[C@@H](NC(=O)C1OC(=O)C1C(C)C)C(C)C)C(=O)O", "note": "(single isomer, unassigned; (-)) [(−)-1, cystargolide A]", "values": [{"measurement": "IC50", "setting": "[1]", "value": "58 ± 9.5", "unit": "µM"}, {"measurement": "IC50", "setting": "[2]", "value": "> 100", "unit": "µM"}, {"measurement": "activity as 20S proteasome inhibitors", "setting": "[3]", "value": "exhibited activity as 20S proteasome inhibitors"}]}, {"smiles": "CC(C)C1C(=O)OC1C(=O)N[C@H](C(=O)N[C@H](C(=O)O)C(C)C)C(C)C", "note": "(single isomer, unassigned; (-)) [(−)-2, cystargolide B]", "values": [{"measurement": "IC50", "setting": "[1]", "value": "84.7 ± 18.6", "unit": "µM"}, {"measurement": "IC50", "setting": "[2]", "value": "> 100", "unit": "µM"}, {"measurement": "activity as 20S proteasome inhibitors", "setting": "[3]", "value": "exhibited activity as 20S proteasome inhibitors"}]}]}
